Source: patent publication US8445503B2, “Inhibitors of polo-like kinase” (Elan Pharmaceuticals, Inc., priority 2009, dated 2013)

Columns and labels:
Format in all cases: biochemical
[1] = target: GST-PLK1 (Homo sapiens, UniProt P53350); test: PLK TR-FRET peptide assay, PLK1; conditions: read-out: Plk1 IC50
[2] = target: T1, GST-PLK2 (Homo sapiens, UniProt Q9NYY3); test: PLK TR-FRET peptide assay, PLK2; conditions: PLK TR-FRET peptide assay, GST-PLK2; read-out: Plk2 IC50
T1 construct: purchased CarnaBio

[3] = target: T2, GST-PLK3 (Homo sapiens, UniProt Q9H4B4); test: PLK TR-FRET peptide assay, PLK3; conditions: PLK TR-FRET peptide assay, GST-PLK3; read-out: Plk3 IC50
T2 construct: purchased CarnaBio
T2 sequence (Q9H4B4 whole entry): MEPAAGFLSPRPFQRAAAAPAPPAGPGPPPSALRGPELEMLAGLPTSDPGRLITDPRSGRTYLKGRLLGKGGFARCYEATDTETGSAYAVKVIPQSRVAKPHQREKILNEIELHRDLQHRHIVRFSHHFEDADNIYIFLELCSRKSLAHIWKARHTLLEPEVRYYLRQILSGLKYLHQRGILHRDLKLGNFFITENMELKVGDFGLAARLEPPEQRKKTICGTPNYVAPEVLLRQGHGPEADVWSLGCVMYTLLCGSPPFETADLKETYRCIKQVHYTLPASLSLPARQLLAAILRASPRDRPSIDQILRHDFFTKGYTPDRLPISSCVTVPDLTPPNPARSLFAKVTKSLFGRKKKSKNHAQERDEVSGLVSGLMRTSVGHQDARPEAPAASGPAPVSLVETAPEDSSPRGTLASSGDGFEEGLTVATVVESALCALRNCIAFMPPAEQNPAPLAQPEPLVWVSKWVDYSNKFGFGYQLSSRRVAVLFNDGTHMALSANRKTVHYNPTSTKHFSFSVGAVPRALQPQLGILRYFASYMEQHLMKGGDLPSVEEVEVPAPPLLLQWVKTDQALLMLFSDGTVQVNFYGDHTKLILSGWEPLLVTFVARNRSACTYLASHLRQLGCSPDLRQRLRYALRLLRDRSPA

Sequence of GST-PLK1 (P53350 whole entry): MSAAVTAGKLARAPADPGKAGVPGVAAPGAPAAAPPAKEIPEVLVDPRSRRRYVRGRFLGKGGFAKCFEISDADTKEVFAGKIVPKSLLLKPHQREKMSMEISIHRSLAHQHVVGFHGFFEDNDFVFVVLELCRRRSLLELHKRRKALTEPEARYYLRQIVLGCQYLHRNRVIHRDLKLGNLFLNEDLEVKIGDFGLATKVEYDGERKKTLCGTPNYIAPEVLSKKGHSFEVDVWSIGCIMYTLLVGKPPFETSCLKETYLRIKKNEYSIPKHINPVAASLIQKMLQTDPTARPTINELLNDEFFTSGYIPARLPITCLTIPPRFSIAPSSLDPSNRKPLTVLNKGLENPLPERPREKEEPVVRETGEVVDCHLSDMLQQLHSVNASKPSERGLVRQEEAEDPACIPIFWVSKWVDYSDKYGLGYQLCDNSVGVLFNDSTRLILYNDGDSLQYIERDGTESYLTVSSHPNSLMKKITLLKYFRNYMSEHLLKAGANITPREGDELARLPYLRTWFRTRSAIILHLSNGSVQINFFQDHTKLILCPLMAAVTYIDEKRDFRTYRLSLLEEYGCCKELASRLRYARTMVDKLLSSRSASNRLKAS
T1 sequence (Q9NYY3 whole entry): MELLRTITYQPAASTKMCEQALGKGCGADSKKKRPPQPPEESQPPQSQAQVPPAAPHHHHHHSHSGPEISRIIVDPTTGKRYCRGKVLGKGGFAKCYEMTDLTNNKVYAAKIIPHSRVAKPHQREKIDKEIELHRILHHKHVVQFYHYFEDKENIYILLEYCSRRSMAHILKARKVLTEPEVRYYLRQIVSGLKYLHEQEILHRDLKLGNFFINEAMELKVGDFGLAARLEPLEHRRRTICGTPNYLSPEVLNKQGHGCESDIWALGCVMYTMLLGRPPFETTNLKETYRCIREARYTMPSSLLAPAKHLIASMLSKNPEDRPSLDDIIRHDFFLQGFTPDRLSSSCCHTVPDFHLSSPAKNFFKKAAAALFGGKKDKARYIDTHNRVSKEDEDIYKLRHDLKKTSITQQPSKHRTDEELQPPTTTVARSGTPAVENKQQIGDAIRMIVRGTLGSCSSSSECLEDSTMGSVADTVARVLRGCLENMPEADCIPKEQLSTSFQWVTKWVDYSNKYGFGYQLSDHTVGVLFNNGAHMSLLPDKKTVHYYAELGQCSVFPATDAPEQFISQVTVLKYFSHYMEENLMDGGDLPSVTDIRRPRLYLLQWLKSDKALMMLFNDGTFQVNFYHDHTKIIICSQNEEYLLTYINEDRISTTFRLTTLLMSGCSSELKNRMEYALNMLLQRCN

Row | SMILES | IC50 [1] | IC50 [2] | IC50 [3]
1 | CCC12COCCN1c1nc(-n3ccnc3-c3ccccc3)ncc1N(C)C2=O (racemic) [Example 317, 6a-ethyl-5-methyl-2-(2-phenyl-1H-imidazol-1-yl)-6a,7,9,10-tetrahydro-[1,4]oxazino[3,4-h]pteridin-6(5H)-one] | 10 to 50 µM | < 1 µM | 1 to 10 µM
2 | CCC12COCCN1c1nc(-c3cn[nH]c3-c3ccc(F)cc3F)ncc1N(C)C2=O (racemic) [Example 405, 2-(5-(2,4-difluorophenyl)-1H-pyrazol-4-yl)-6a-ethyl-5-methyl-6a,7,9,10-tetrahydro-[1,4]oxazino[3,4-h]pteridin-6(5H)-one] | 10 to 50 µM | < 1 µM | 1 to 10 µM
3 | CC[C@@H]1C(=O)N(C)c2cnc(-n3ccnc3)nc2N1C1CCC1 [Example 111, (R)-8-cyclobutyl-7-ethyl-2-(1H-imidazol-1-yl)-5-methyl-7,8-dihydropteridin-6(5H)-one] | 1 to 10 µM | < 1 µM | 10 to 50 µM
4 | CCC1C(=O)N(C)c2cnc(-n3ccnc3)nc2N1c1cn[nH]c1 (stereo not drawn) [Example 343, 7-ethyl-2-(1H-imidazol-1-yl)-5-methyl-8-(1H-pyrazol-4-yl)-7,8-dihydropteridin-6(5H)-one] | > 50 µM | 1 to 10 µM | > 50 µM
5 | CC[C@@H]1CC[C@@]2(CC)C(=O)N(C)c3cnc(-n4ccnc4-c4ccccc4)nc3N12 [Example 309, (6aS,9R)-6a,9-diethyl-5-methyl-2-(2-phenyl-1H-imidazol-1-yl)-6a,7,8,9-tetrahydropyrrolo[2,1-h]pteridin-6(5H)-one] | < 1 µM | < 1 µM | < 1 µM
6 | CCC1C(=O)N(C)c2cnc(-n3ccnc3-c3ccccc3)nc2N1N1CCCC1 (stereo not drawn) [Example 280, 7-ethyl-5-methyl-2-(2-phenyl-1H-imidazol-1-yl)-8-(pyrrolidin-1-yl)-7,8-dihydropteridin-6(5H)-one] | < 1 µM | < 1 µM | 10 to 50 µM
7 | CC[C@@H]1C(=O)N(C)c2cnc(-n3ccnc3-c3nccs3)nc2N1C1CCOC1 (stereo partly drawn) [Example 221, (7R)-7-ethyl-5-methyl-8-(tetrahydrofuran-3-yl)-2-(2-(thiazol-2-yl)-1H-imidazol-1-yl)-7,8-dihydropteridin-6(5H)-one] | 1 to 10 µM | < 1 µM | 10 to 50 µM
8 | CN1C(=O)C23C=CC(CC2)N3c2nc(-n3ccnc3-c3ccccc3)ncc21 (stereo not drawn) [Example 326, 5-methyl-2-(2-phenyl-1H-imidazol-1-yl)-9H-6a,9-ethanopyrrolo[2,1-h]pteridin-6(5H)-one] | > 50 µM | 1 to 10 µM | > 50 µM
9 | CC[C@@H]1C(=O)N(C)c2cnc(-n3ccnc3-c3ccc(F)cc3)nc2N1C1COC1 [Example 328, (R)-7-ethyl-2-(2-(4-fluorophenyl)-1H-imidazol-1-yl)-5-methyl-8-(oxetan-3-yl)-7,8-dihydropteridin-6(5H)-one] | > 50 µM | 1 to 10 µM | > 50 µM
10 | CC[C@@H]1C(=O)N(C)c2cnc(-n3cnc(-c4cccnc4)c3)nc2N1C1CCCC1 [Example 59, (R)-8-cyclopentyl-7-ethyl-5-methyl-2-(4-(pyridin-3-yl)-1H-imidazol-1-yl)-7,8-dihydropteridin-6(5H)-one] | < 1 µM | < 1 µM | 1 to 10 µM
11 | CC[C@@H]1C(=O)N(C)c2cnc(-n3ccnc3)nc2N1C1CCCC1 [Example 3, (R)-8-cyclopentyl-7-ethyl-2-(1H-imidazol-1-yl)-5-methyl-7,8-dihydropteridin-6(5H)-one] | < 1 µM | < 1 µM | 10 to 50 µM
12 | CC[C@@H]1C(=O)N(C)c2cnc(-n3ccnc3-c3cn[nH]c3)nc2N1C1CCCC1 [Example 97, (R)-2-(2-(1H-pyrazol-4-yl)-1H-imidazol-1-yl)-8-cyclopentyl-7-ethyl-5-methyl-7,8-dihydropteridin-6(5H)-one] | < 1 µM | < 1 µM | < 1 µM
13 | CC[C@@H]1C(=O)N(C)c2cnc(-c3cn(C)nc3-c3nccs3)nc2N1c1cnn(C)c1 [Example 417, (R)-7-ethyl-5-methyl-8-(1-methyl-1H-pyrazol-4-yl)-2-(1-methyl-3-(thiazol-2-yl)-1H-pyrazol-4-yl)-7,8-dihydropteridin-6(5H)-one] | 10 to 50 µM | < 1 µM | > 50 µM
14 | CC[C@@H]1C(=O)N(C)c2cnc(-n3ccnc3-c3ccncc3)nc2N1C1CCOCC1 [Example 100, (R)-7-ethyl-5-methyl-2-(2-(pyridin-4-yl)-1H-imidazol-1-yl)-8-(tetrahydro-2H-pyran-4-yl)-7,8-dihydropteridin-6(5H)-one] | 1 to 10 µM | < 1 µM | 1 to 10 µM
15 | CC[C@@]12COCCN1c1nc(-c3[nH]nnc3-c3ccccc3)ncc1N(C)C2=O [Example 373, (S)-6a-ethyl-5-methyl-2-(4-phenyl-1H-1,2,3-triazol-5-yl)-6a,7,9,10-tetrahydro-[1,4]oxazino[3,4-h]pteridin-6(5H)-one] | 10 to 50 µM | 1 to 10 µM | 1 to 10 µM
16 | CC[C@@H]1C(=O)N(C)c2cnc(-n3cnc(C(=O)O)c3)nc2N1C1CCCC1 [Example 37, (R)-1-(8-cyclopentyl-7-ethyl-5-methyl-6-oxo-5,6,7,8-tetrahydropteridin-2-yl)-1H-imidazole-4-carboxylic acid] | < 1 µM | < 1 µM | < 1 µM
17 | CC[C@@H]1C(=O)N(C)c2cnc(-n3cnc(C(=O)OC)c3)nc2N1C1CCCC1 [Example 38, (R)-methyl 1-(8-cyclopentyl-7-ethyl-5-methyl-6-oxo-5,6,7,8-tetrahydropteridin-2-yl)-1H-imidazole-4-carboxylate] | < 1 µM | 1 to 10 µM | 1 to 10 µM
18 | CCC1C(=O)N(C)c2cnc(-c3cn[nH]c3-c3nccs3)nc2N1c1cnn(CC2CC2)c1 (stereo not drawn) [Example 400, 8-(1-(cyclopropylmethyl)-1H-pyrazol-4-yl)-7-ethyl-5-methyl-2-(5-(thiazol-2-yl)-1H-pyrazol-4-yl)-7,8-dihydropteridin-6(5H)-one] | 1 to 10 µM | < 1 µM | 1 to 10 µM

Second part, the compound after the results:

Row | IC50 [1] | IC50 [2] | IC50 [3] | SMILES
19 | 1 to 10 µM | < 1 µM | > 50 µM | CC[C@@H]1C(=O)N(C)c2cnc(-n3ccc(C(=O)NC)n3)nc2N1C1CCCC1 [Example 58, (R)-1-(8-cyclopentyl-7-ethyl-5-methyl-6-oxo-5,6,7,8-tetrahydropteridin-2-yl)-N-methyl-1H-pyrazole-3-carboxamide]
20 | 1 to 10 µM | < 1 µM | 10 to 50 µM | CC[C@@H]1C(=O)N(C)c2cnc(-n3cnc(CC#N)c3)nc2N1C1CCCC1 [Example 35, (R)-2-(1-(8-cyclopentyl-7-ethyl-5-methyl-6-oxo-5,6,7,8-tetrahydropteridin-2-yl)-1H-imidazol-4-yl)acetonitrile]
21 | < 1 µM | < 1 µM | 1 to 10 µM | CC[C@@H]1C(=O)N(C)c2cnc(-n3cnc(C(=O)NC)c3)nc2N1C1CCCC1 [Example 46, (R)-1-(8-cyclopentyl-7-ethyl-5-methyl-6-oxo-5,6,7,8-tetrahydropteridin-2-yl)-N-methyl-1H-imidazole-4-carboxamide]
22 | < 1 µM | < 1 µM | 1 to 10 µM | CC[C@@H]1C(=O)N(C)c2cnc(-c3cnsc3-c3ccc(F)cc3)nc2N1C(C)C [Example 296, (R)-7-ethyl-2-(5-(4-fluorophenyl)isothiazol-4-yl)-8-isopropyl-5-methyl-7,8-dihydropteridin-6(5H)-one]
23 | > 50 µM | 10 to 50 µM | > 50 µM | CC[C@]12COCCN1c1nc(-n3ccnc3-c3ccccc3)ncc1N(C)C2=O (single isomer, unassigned) [Example 315]
24 | > 50 µM | > 50 µM | > 50 µM | CC[C@]12COCCN1c1nc(-c3cnoc3-c3ccccc3)ncc1N(C)C2=O [Example 414, (R)-6a-ethyl-5-methyl-2-(5-phenylisoxazol-4-yl)-6a,7,9,10-tetrahydro-[1,4]oxazino[3,4-h]pteridin-6(5H)-one]
25 | < 1 µM | < 1 µM | 1 to 10 µM | CC[C@@H]1C(=O)N(C)c2cnc(-n3ccnc3-c3cncnc3)nc2N1C1CCCC1 [Example 159, (R)-8-cyclopentyl-7-ethyl-5-methyl-2-(2-(pyrimidin-5-yl)-1H-imidazol-1-yl)-7,8-dihydropteridin-6(5H)-one]
26 | < 1 µM | < 1 µM | < 1 µM | CC[C@@H]1C(=O)N(C)c2cnc(-c3cn[nH]c3-c3ccccc3)nc2N1C1CCCC1 [Example 134, (R)-8-cyclopentyl-7-ethyl-5-methyl-2-(5-phenyl-1H-pyrazol-4-yl)-7,8-dihydropteridin-6(5H)-one]
27 | 10 to 50 µM | < 1 µM | 10 to 50 µM | CN1C(=O)[C@]2(C)CCCN2c2nc(-n3ccnc3-c3ccccc3)ncc21 [Example 80, (S)-5,6a-dimethyl-2-(2-phenyl-1H-imidazol-1-yl)-6a,7,8,9-tetrahydropyrrolo[2,1-h]pteridin-6(5H)-one]
28 | > 50 µM | 10 to 50 µM | > 50 µM | CC[C@]12COCCN1c1nc(-c3snnc3-c3ccc(F)cn3)ncc1N(C)C2=O [Example 416, (R)-6a-ethyl-2-(4-(5-fluoropyridin-2-yl)-1,2,3-thiadiazol-5-yl)-5-methyl-6a,7,9,10-tetrahydro-[1,4]oxazino[3,4-h]pteridin-6(5H)-one]
29 | 1 to 10 µM | 1 to 10 µM | 10 to 50 µM | CC[C@@H]1C(=O)N(C)c2cnc(-n3cc(C(=O)N(C)C)cn3)nc2N1C1CCCC1 [Example 39, (R)-1-(8-cyclopentyl-7-ethyl-5-methyl-6-oxo-5,6,7,8-tetrahydropteridin-2-yl)-N,N-dimethyl-1H-pyrazole-4-carboxamide]
